Laboratory results: ChEMBL document CHEMBL5154747, “Discovery of new carbonic anhydrase IX inhibitors as anticancer agents by toning the hydrophobic and hydrophilic rims of the active site to encounter the dual-tail approach” (Eur J Med Chem, 2022)

Assays:
[1] = tested on: SK-MEL-5; assay: Anticancer activity against human SK-MEL-5 cells assessed as cell growth inhibition incubated for 48 hrs by SRB assay; assay type: functional
[2] = tested on: IGROV-1; assay: Anticancer activity against human IGROV-1 cells assessed as cell growth inhibition incubated for 48 hrs by SRB assay; assay type: functional; settings: read-out: LC50 (the source's name)
[3] = tested on: PC-3; assay: Anticancer activity against human PC-3 cells assessed as cell growth inhibition incubated for 48 hrs by SRB assay; assay type: functional; settings: read-out: LC50 (the source's name)
[4] = tested on: SK-MEL-28; assay: Anticancer activity against human SK-MEL-28 cells assessed as cell growth inhibition incubated for 48 hrs by SRB assay; assay type: functional; settings: read-out: LC50 (the source's name)
[5] = tested on: SF-295; assay: Anticancer activity against human SF-295 cells assessed as cell growth inhibition incubated for 48 hrs by SRB assay; assay type: functional; settings: read-out: LC50 (the source's name)
[6] = tested on: K562; assay: Anticancer activity against human K562 cells assessed as cell growth inhibition incubated for 48 hrs by SRB assay; assay type: functional; settings: read-out: LC50 (the source's name)
[7] = tested on: HOP-92; assay: Anticancer activity against human HOP-92 cells assessed as cell growth inhibition incubated for 48 hrs by SRB assay; assay type: functional; settings: read-out: LC50 (the source's name)
[8] = tested on: A549; assay: Anticancer activity against human A549 cells assessed as cell growth inhibition incubated for 48 hrs by SRB assay; assay type: functional
[9] = tested on: HCC 2998; assay: Cytotoxicity against human HCC 2998 cells assessed as inhibition of cell viability incubated for 72 hrs under hypoxia condition by MTT assay; assay type: functional, cell-based; settings: HCC 2998, 72 h
[10] = tested on: TK-10; assay: Anticancer activity against human TK-10 cells assessed as cell growth inhibition incubated for 48 hrs by SRB assay; assay type: functional; settings: read-out: LC50 (the source's name)
[11] = tested on: MDA-MB-468; assay: Anticancer activity against human MDA-MB-468 cells assessed as cell growth inhibition incubated for 48 hrs by SRB assay; assay type: functional; settings: read-out: LC50 (the source's name)
[12] = tested on: UO-31; assay: Anticancer activity against human UO-31 cells assessed as cell growth inhibition incubated for 48 hrs by SRB assay; assay type: functional; settings: read-out: LC50 (the source's name)
[13] = tested on: NCI-H226; assay: Anticancer activity against human NCI-H226 cells assessed as cell growth inhibition incubated for 48 hrs by SRB assay; assay type: functional; settings: read-out: LC50 (the source's name)
[14] = tested on: SF-539; assay: Anticancer activity against human SF-539 cells assessed as cell growth inhibition incubated for 48 hrs by SRB assay; assay type: functional
[15] = tested on: RXF 393; assay: Anticancer activity against human RXF 393 cells assessed as cell growth inhibition incubated for 48 hrs by SRB assay; assay type: functional; settings: read-out: LC50 (the source's name)
[16] = tested on: SR; assay: Anticancer activity against human SR cells assessed as cell growth inhibition incubated for 48 hrs by SRB assay; assay type: functional; settings: read-out: LC50 (the source's name)
[17] = tested on: Malme-3M; assay: Anticancer activity against human Malme-3M cells assessed as cell growth inhibition incubated for 48 hrs by SRB assay; assay type: functional
[18] = tested on: SW-620; assay: Anticancer activity against human SW-620 cells assessed as cell growth inhibition incubated for 48 hrs by SRB assay; assay type: functional
[19] = tested on: CCRF-CEM; assay: Anticancer activity against human CCRF-CEM cells assessed as cell growth inhibition incubated for 48 hrs by SRB assay; assay type: functional
[20] = tested on: HT-29; assay: Anticancer activity against human HT-29 cells assessed as cell growth inhibition incubated for 48 hrs by SRB assay; assay type: functional
[21] = tested on: KM12; assay: Anticancer activity against human KM12 cells assessed as cell growth inhibition incubated for 48 hrs by SRB assay; assay type: functional
[22] = tested on: 786-0; assay: Anticancer activity against human 786-0 cells assessed as cell growth inhibition incubated for 48 hrs by SRB assay; assay type: functional
[23] = tested on: EKVX; assay: Anticancer activity against human EKVX cells assessed as cell growth inhibition incubated for 48 hrs by SRB assay; assay type: functional; settings: read-out: LC50 (the source's name)
[24] = tested on: A498; assay: Anticancer activity against human A498 cells assessed as cell growth inhibition incubated for 48 hrs by SRB assay; assay type: functional
[25] = tested on: OVCAR-3; assay: Anticancer activity against human OVCAR-3 cells assessed as cell growth inhibition incubated for 48 hrs by SRB assay; assay type: functional
[26] = tested on: MOLT-4; assay: Anticancer activity against human MOLT-4 cells assessed as cell growth inhibition incubated for 48 hrs by SRB assay; assay type: functional
[27] = tested on: NCI-H522; assay: Anticancer activity against human NCI-H522 cells assessed as cell growth inhibition incubated for 48 hrs by SRB assay; assay type: functional; settings: read-out: LC50 (the source's name)
[28] = tested on: MCF7; assay: Anticancer activity against human MCF7 cells assessed as cell growth inhibition incubated for 48 hrs by SRB assay; assay type: functional
[29] = tested on: BT-549; assay: Anticancer activity against human BT-549 cells assessed as cell growth inhibition incubated for 48 hrs by SRB assay; assay type: functional; settings: read-out: LC50 (the source's name)
[30] = read-out: LC50 (the source's name)

SMILES: O=c1[nH]cc(F)c(=O)[nH]1 [FLUOROURACIL]
- GI50 [1]: 460 nM
- CC50 [2]: > 100 µM
- CC50 [3]: > 100 µM
- CC50 [4]: > 100 µM
- CC50 [5]: > 100 µM
- CC50 [6]: > 100 µM
- CC50 [7]: > 100 µM
- GI50 [8]: 180 nM
- IC50 [9]: 12.6 µM
- CC50 [10]: > 100 µM
- CC50 [11]: > 100 µM
- CC50 [12]: > 100 µM
- CC50 [13]: > 100 µM
- GI50 [14]: 60 nM
- CC50 [14, 30]: > 100 µM
- CC50 [15]: > 100 µM
- CC50 [16]: > 100 µM
- GI50 [17]: 50 nM
- CC50 [17, 30]: > 100 µM
- GI50 [18]: 920 nM
- CC50 [18, 30]: > 100 µM
- GI50 [19]: 9.97 µM
- CC50 [19, 30]: > 100 µM
- GI50 [20]: 170 nM
- CC50 [20, 30]: > 100 µM
- GI50 [21]: 210 nM
- CC50 [21, 30]: > 100 µM
- GI50 [22]: 720 nM
- CC50 [22, 30]: > 100 µM
- CC50 [23]: > 100 µM
- GI50 [24]: 350 nM
- CC50 [24, 30]: > 100 µM
- GI50 [25]: 10 nM
- GI50 [26]: 350 nM
- CC50 [26, 30]: > 100 µM
- CC50 [27]: > 100 µM
- GI50 [28]: 70 nM
- CC50 [29]: > 100 µM
